The record followed here is patent publication US20260306527A1, “PRMT INHIBITOR COMPOUNDS AND THE USES THEREOF” (Purdue Research Foundation, priority 2023, published 2026).

Structures are written as SMILES.

What all share (type): biochemical
One assay concerns the target T1, PRMT1 (Homo sapiens, UniProt Q99873).
T1 construct: made in house
The experiment in a line: SAHH-coupled fluorescence assay, inhibition of PRMT1. Conditions: for IC50: read-out: IC50[μM] | PRMT1. In short, it runs like this:
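PRMT1 (0.1 μM) was run with 10 μM AdoMet, 5 μM SAHH and 10 μM ThioGlo4 in 2.5 mM HEPES pH 7.0, 25 mM NaCl, 25 μM EDTA, 50 μM TCEP and 0.01% Triton X-100. Fluorescence (ex 400/em 465 nm) was monitored for 15 min. Assays were done in duplicate.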

Assay [1] concerns PRMT3. The experiment in a line: SAHH-coupled fluorescence assay, inhibition of PRMT3. Conditions: read-out: IC50[μM] | PRMT3. The method, then: A fluorescence-based SAHH-coupled assay was applied to study the inhibition activity of all synthesized compounds on PRMT 1 and 3.
The PRMT3 methylation assay was performed under the following conditions in a final well volume of 100 μL: 20 mM Tris (pH=7.5), 0.01% Triton X-100, 5 μM SAHH, 0.25 μM PRMT3, 30 μM AdoMet, and 15 μM ThioGlo4. […] Fluorescence was monitored on a BMG CLARIOstar microplate reader with excitation 380 nm and emission 505 nm. Data were processed by using GraphPad Prism software 8.0. All experiments were performed in duplicate.
(§1) Next, the inhibition activity of the library was investigated for five PRMT members from type I PRMTs.
The PRMT3 methylation assay was performed under the following conditions in a final well volume of 100 μL: 20 mM Tris (pH=7.5), 0.01% Triton X-100, 5 μM SAHH, 0.25 μM PRMT3, 30 μM AdoMet, and 15 μM ThioGlo4. […] Fluorescence was monitored on a BMG CLARIOstar microplate reader with excitation 380 nm and emission 505 nm. Data were processed by using GraphPad Prism software 8.0.

A further assay addresses T2, PRMT4 (Homo sapiens, UniProt Q86X55).
T2 sequence (Q86X55 1-608): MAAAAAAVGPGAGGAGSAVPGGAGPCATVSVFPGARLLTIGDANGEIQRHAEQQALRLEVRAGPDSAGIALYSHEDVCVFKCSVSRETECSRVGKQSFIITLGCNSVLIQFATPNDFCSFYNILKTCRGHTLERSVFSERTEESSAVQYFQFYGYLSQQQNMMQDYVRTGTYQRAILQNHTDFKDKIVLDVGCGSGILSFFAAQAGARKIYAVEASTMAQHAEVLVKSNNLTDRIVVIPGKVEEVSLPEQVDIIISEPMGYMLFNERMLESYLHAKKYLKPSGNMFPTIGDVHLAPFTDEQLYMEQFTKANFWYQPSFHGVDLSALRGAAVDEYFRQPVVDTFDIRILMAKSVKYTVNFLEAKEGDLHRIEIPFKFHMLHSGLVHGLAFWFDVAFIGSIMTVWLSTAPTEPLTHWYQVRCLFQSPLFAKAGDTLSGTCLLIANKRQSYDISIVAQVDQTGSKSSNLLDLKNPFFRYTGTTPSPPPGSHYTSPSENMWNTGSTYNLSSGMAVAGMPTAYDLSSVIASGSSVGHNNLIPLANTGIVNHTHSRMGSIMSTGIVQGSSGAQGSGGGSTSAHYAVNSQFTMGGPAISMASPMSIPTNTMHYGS
The experiment in a line: radioactive assay (Reaction Biology Corp.), inhibition of PRMT4. The method, then:
as §1
(§2) The PRMT 4, 6 and 8 methylation assays were performed by Reaction Biology corp.

The next assay addresses PRMT6 (Homo sapiens, UniProt Q96LA8). The experiment in a line: radioactive assay (Reaction Biology Corp.), inhibition of PRMT6. The method, then:
as §1, §2

Another assay has as its target PRMT8 (Homo sapiens, UniProt Q9NR22). The experiment in a line: radioactive assay (Reaction Biology Corp.), inhibition of PRMT8. As for the experimental part: as §1, §2
Assay [2] concerns the target PRMT3 (Homo sapiens, UniProt O60678). The experiment in a line: SAHH-coupled fluorescence assay, inhibition of PRMT3. The arrangement: PRMT3 (residues 211-531) was cloned into the pET28a-MHL expression vector; tag of the pET28a-MHL vector (not described); made in house; host or cells: Escherichia coli BL21(DE3). The method in brief: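 Coupled SAHH/ThioGlo4 fluorescence read-out (ex 380 nm, em 505 nm) of PRMT3 (0.25 μM) methylation with 30 μM AdoMet and 5 μM SAHH. Buffer was 20 mM Tris pH 7.5 with 0.01% Triton X-100. Run in duplicate.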

T1 sequence (Q99873 whole entry, species assumed): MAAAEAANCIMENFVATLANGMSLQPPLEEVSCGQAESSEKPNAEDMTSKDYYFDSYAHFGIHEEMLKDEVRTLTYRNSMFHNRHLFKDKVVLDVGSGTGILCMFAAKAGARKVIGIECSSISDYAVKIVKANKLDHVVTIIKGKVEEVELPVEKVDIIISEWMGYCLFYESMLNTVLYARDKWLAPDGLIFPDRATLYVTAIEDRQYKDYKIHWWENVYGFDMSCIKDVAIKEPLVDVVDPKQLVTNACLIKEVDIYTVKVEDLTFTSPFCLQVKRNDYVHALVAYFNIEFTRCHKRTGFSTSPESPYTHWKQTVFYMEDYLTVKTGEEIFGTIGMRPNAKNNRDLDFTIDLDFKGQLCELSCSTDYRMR
Chain of PRMT6 (Q96LA8 whole entry, species assumed): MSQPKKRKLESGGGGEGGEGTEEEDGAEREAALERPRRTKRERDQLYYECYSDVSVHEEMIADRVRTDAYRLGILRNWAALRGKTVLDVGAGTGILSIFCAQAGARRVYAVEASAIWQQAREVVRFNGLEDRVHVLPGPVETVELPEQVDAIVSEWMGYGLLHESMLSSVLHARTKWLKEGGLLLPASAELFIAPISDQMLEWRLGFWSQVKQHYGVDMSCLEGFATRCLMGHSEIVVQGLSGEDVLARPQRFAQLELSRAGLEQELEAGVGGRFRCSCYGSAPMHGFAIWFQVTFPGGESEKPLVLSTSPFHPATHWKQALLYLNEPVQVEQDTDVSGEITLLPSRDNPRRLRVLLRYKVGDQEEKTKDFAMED
Chain of PRMT8 (Q9NR22 whole entry, species assumed, the tested form may be a part): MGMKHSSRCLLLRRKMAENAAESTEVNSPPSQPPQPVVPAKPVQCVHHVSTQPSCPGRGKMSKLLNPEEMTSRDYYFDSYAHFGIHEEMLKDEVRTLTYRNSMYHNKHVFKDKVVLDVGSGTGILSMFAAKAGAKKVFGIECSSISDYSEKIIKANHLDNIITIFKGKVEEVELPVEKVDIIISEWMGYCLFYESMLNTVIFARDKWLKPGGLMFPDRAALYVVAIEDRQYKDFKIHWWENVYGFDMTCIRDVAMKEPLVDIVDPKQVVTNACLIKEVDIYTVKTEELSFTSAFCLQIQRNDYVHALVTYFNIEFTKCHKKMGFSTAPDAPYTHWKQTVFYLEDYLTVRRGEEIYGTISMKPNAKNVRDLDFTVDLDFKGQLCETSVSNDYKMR
Chain of PRMT3 (Homo sapiens, UniProt O60678) (O60678 211-531): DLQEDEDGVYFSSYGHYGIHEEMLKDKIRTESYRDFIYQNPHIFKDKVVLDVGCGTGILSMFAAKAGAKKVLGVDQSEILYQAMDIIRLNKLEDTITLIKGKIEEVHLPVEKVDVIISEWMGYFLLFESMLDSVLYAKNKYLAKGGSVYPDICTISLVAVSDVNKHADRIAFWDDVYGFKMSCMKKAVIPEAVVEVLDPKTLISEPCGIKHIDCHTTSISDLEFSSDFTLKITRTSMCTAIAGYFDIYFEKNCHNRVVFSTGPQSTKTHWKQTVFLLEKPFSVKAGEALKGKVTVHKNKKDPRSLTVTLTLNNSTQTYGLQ

Regarding `N=C(NCCSC[C@H]1O[C@@H](n2cnc3c(N)ncnc32)[C@H](O)[C@@H]1O)Nc1cccc(I)c1` [Compound 5c], the inhibition at 10 µM was determined as 95% at PRMT1; 100% on PRMT4; 98% on PRMT6; 99% on PRMT8; 38% against PRMT3 [2]. In addition, the IC50 worked out at 0.13 ± 0.006 µM at PRMT1 and 8.68 ± 2.9 µM with PRMT3 [1].

For `N=C(NCCCSC[C@H]1O[C@@H](n2cnc3c(N)ncnc32)[C@H](O)[C@@H]1O)Nc1ccccc1` [Compound 5d], the inhibition at 10 µM against PRMT1 is 94%; at PRMT4 it was 99%; at PRMT6 it was 99%; at PRMT8, 98%; against PRMT3 [2] it was 54%. The IC50 on PRMT1 was determined as 0.17 ± 0.011 µM; in the assay with PRMT3 [1], 7.2 ± 0.61 µM.

With `N=C(NCCSC[C@H]1O[C@@H](n2cnc3c(N)ncnc32)[C@H](O)[C@@H]1O)Nc1cccc(-c2ccc(Cl)cc2)c1` [Compound 6a], the inhibition at 10 µM against PRMT1 is 89%; at PRMT4, 100%; at PRMT6, 91%; on PRMT8, 97%; against PRMT3 [2], 62%. Further, the IC50 at PRMT1 stood at 0.21 ± 0.054 µM; with PRMT3 [1], 5.9 ± 0.34 µM.

Turning to `N=C(NCCSC[C@H]1O[C@@H](n2cnc3c(N)ncnc32)[C@H](O)[C@@H]1O)Nc1cccc(-c2ccc(C(F)(F)F)cc2)c1` [Compound 6b], the inhibition at 10 µM was found to be 83% on PRMT1; 100% on PRMT4; 91% at PRMT6; 94% at PRMT8; 42% against PRMT3 [2]. Besides, the IC50 was 1.8 ± 0.17 µM on PRMT1 and 12 ± 0.83 µM with PRMT3 [1].

In the case of `N=C(NCCSC[C@H]1O[C@@H](n2cnc3c(N)ncnc32)[C@H](O)[C@@H]1O)Nc1cccc(-c2ccoc2)c1` [Compound 6c], the inhibition at 10 µM against PRMT1 was determined as 84%; at PRMT4 it was 100%; at PRMT6, 76%; on PRMT8 it was 82%; against PRMT3 [2], 48%. The IC50 came out at 1.5 ± 0.12 µM at PRMT1 and 8.3 ± 0.34 µM in the assay on PRMT3 [1].

Consider `N=C(NCCSC[C@H]1O[C@@H](n2cnc3c(N)ncnc32)[C@H](O)[C@@H]1O)Nc1cccc(-c2cccc(F)c2)c1` [Compound 6d], for which the inhibition at 10 µM on PRMT1 was found to be 68%; at PRMT4, 100%; on PRMT6, 67%; at PRMT8 it was 81%; against PRMT3 [2], 26%. Also, the results for the IC50 on PRMT1 and with PRMT3 [1] were 4.9 ± 0.11 µM and 18 ± 2.1 µM, respectively.

With `N=C(NCCCSC[C@H]1O[C@@H](n2cnc3c(N)ncnc32)[C@H](O)[C@@H]1O)Nc1cccc(-c2ccc(O)cc2)c1` [Compound 6e], the inhibition at 10 µM against PRMT1 is 95%; at PRMT4, 100%; at PRMT6 it was 99%; on PRMT8, 98%; on PRMT3 [2], 47%. The results for the IC50 on PRMT1 and in the assay on PRMT3 [1] were 0.23 ± 0.013 µM and 8.6 ± 0.58 µM, respectively.

On to `N=C(NCCCSC[C@H]1O[C@@H](n2cnc3c(N)ncnc32)[C@H](O)[C@@H]1O)Nc1cccc(-c2ccc(Cl)cc2)c1` [Compound 6f], for which the inhibition at 10 µM against PRMT1 worked out at 92%; on PRMT4 it was 100%; on PRMT6, 97%; on PRMT8, 100%; at PRMT3 [2], 76%. For the same compound, the IC50 at PRMT1 worked out at 0.2 ± 0.031 µM; with PRMT3 [1], 1.8 ± 0.23 µM.

Consider `N=C(NCCCSC[C@H]1O[C@@H](n2cnc3c(N)ncnc32)[C@H](O)[C@@H]1O)Nc1cccc(-c2ccc3c(c2)OCCO3)c1` [Compound 6g], for which the inhibition at 10 µM at PRMT1 came to 87%; on PRMT4, 100%; at PRMT6, 98%; on PRMT8 it was 99%; at PRMT3 [2], 64%. In addition, the IC50 stood at 0.21 ± 0.023 µM at PRMT1 and 3.2 ± 0.47 µM in the assay with PRMT3 [1].

Turning to `N=C(NCCCSC[C@H]1O[C@@H](n2cnc3c(N)ncnc32)[C@H](O)[C@@H]1O)Nc1cccc(-c2ccc(C(F)(F)F)cc2)c1` [Compound 6h], the inhibition at 10 µM on PRMT1 worked out at 88%; at PRMT4, 100%; at PRMT6, 97%; at PRMT8, 99%; against PRMT3 [2] it was 57%. The results for the half-inhibitory concentration (IC50) at PRMT1 and in the assay with PRMT3 [1] were 0.25 ± 0.051 µM and 5.7 ± 0.68 µM, respectively.

As to `N=C(NCCCSC[C@H]1O[C@@H](n2cnc3c(N)ncnc32)[C@H](O)[C@@H]1O)Nc1cccc(-c2cccc(F)c2)c1` [Compound 6j], the inhibition at 10 µM against PRMT1 was 96%; at PRMT4, 100%; at PRMT6, 97%; on PRMT8 it was 99%; against PRMT3 [2], 45%. Moreover, the figures for the IC50 on PRMT1 and in the assay with PRMT3 [1] were 0.26 ± 0.057 µM and 4.7 ± 0.83 µM, respectively.

Regarding `N=C(NCCCSC[C@H]1O[C@@H](n2cnc3c(N)ncnc32)[C@H](O)[C@@H]1O)Nc1cccc(-c2ccc(F)cc2F)c1` [Compound 6k], the inhibition at 10 µM worked out at 97% on PRMT1; 100% on PRMT4; 96% on PRMT6; 99% at PRMT8; 50% on PRMT3 [2]. Besides, the IC50 on PRMT1 was found to be 0.33 ± 0.072 µM; with PRMT3 [1], 6.6 ± 2.8 µM.

As for `N=C(NCCCSC[C@H]1O[C@@H](n2cnc3c(N)ncnc32)[C@H](O)[C@@H]1O)Nc1cccc(-c2ccc(F)c(O)c2)c1` [Compound 6l], the inhibition at 10 µM on PRMT1 is 92%; at PRMT4, 100%; on PRMT6 it was 97%; on PRMT8 it was 99%; against PRMT3 [2] it was 58%. Further, the IC50 is 0.17 ± 0.022 µM at PRMT1 and 5.5 ± 1 µM in the assay on PRMT3 [1].

`N=C(NCCCSC[C@H]1O[C@@H](n2cnc3c(N)ncnc32)[C@H](O)[C@@H]1O)Nc1cccc(-c2cccnc2)c1` [Compound 6m]: the inhibition at 10 µM against PRMT1 was determined as 88%; at PRMT4, 100%; on PRMT6, 93%; at PRMT8 it was 96%; at PRMT3 [2], 22%. Moreover, the half-inhibitory concentration (IC50) is 0.9 ± 0.17 µM at PRMT1 and 14 ± 3.1 µM in the assay on PRMT3 [1].

As to `N=C(NCCCSC[C@H]1O[C@@H](n2cnc3c(N)ncnc32)[C@H](O)[C@@H]1O)Nc1cccc(-c2ccc(F)nc2)c1` [Compound 6n], the inhibition at 10 µM stood at 91% against PRMT1; 100% on PRMT4; 99% on PRMT6; 100% at PRMT8; 61% at PRMT3 [2]. Further, the IC50 turned out to be 0.35 ± 0.073 µM on PRMT1 and 4.2 ± 0.61 µM with PRMT3 [1].

In the case of `N=C(NCCCSC[C@H]1O[C@@H](n2cnc3c(N)ncnc32)[C@H](O)[C@@H]1O)Nc1cccc(-c2cncnc2)c1` [Compound 6o], the inhibition at 10 µM on PRMT1 was found to be 102%; at PRMT4, 100%; at PRMT6, 96%; at PRMT8 it was 95%; on PRMT3 [2], 5%. Also, the IC50 on PRMT1 came out at 0.45 ± 0.11 µM; in the assay on PRMT3 [1] it was 25 ± 5 µM.
